{
  "source": "paper PMC11164811",
  "about": "(Investigational New Drugs, 2024)",
  "key": {"[1]": {"test": "Plasma pharmacokinetics of selumetinib and N-desmethyl selumetinib on day 1 of cycle 1", "type": "in vivo, human", "from_the_text": "Additional predose samples were collected on days 1 and 14 of cycle 2 and on days 1 and 14 of cycle 5.\n(§1) No formal hypothesis testing was planned."}, "[2]": {"system": "patients with advanced or metastatic solid tumors", "test": "Dose-limiting toxicities during first 21 days, phase 1b MK-5618-001", "type": "in vivo, human", "conditions": "selumetinib twice daily 2 weeks on/1 week off in combination with pembrolizumab", "from_the_text": "At least 3 patients were enrolled at each dose level; the modified toxicity probability interval (mTPI) design, with a target dose-limiting toxicity (DLT) rate of ~30%, was used to identify a potential maximum tolerated dose. Dose escalation and de-escalation decisions were based on the mTPI design and were dependent on the number of patients enrolled and number of DLTs observed at the particular dose level (Online Resource 1). Dose finding was considered complete after 14 patients were enrolled at any of the tested dose levels and the decision was made to stay at that dose level.\nas §1\nAny treatment-related toxicity that causes the patient to discontinue treatment during cycle 1 […]\nCardiac disorders including\n• Absolute decrease in left ventricular ejection fraction >10% compared with baseline and below the institution’s lower limit of normal • Grade ≥3 left ventricular systolic dysfunction\n• Other cardiac disorders grade ≥3\nVascular disorders including\n• Grade ≥3 hypertension requiring >1 drug or more intensive therapy […]\nassessment. […] The occurrence of any of the toxicities listed in this table was considered a dose-limiting toxicity if assessed by the investigator to be possibly, probably , or definitely related"}},
  "note": "Read-outs that look alike come from different tables or passages of the source.",
  "data": [
    {"smiles": "O=C(NOCCO)c1cc2nc[nH]c2c(F)c1Nc1ccc(Br)cc1Cl", "note": "[N-Desmethyl selumetinib, N-desmethyl selumetinib]", "values": [
      {"measurement": "Observed t1/2, range across dose levels", "setting": "[1]; human, in vivo", "value": "3.07 to 3.94", "unit": "h"}
    ]},
    {"smiles": "Cn1cnc2c(F)c(Nc3ccc(Br)cc3Cl)c(C(=O)NOCCO)cc21", "note": "[Selumetinib, selumetinib]", "values": [
      {"measurement": "Maximum tolerable dose level", "setting": "[2]", "value": "exceeds 125 mg"},
      {"measurement": "half-life", "setting": "[1]; human, in vivo, day 1 of cycle 1, selumetinib 50-125 mg, read-out: Observed t1/2, range across dose levels", "value": "2.82 to 3.82", "unit": "h"},
      {"measurement": "half-life", "setting": "[1]; human, in vivo, plasma, day 1 of cycle 1, Selumetinib 125 mg + Pembrolizumab 200 mg, n = 11, geometric mean (% geometric CV), read-out: t1/2 (converted)", "value": 2.82, "unit": "h"},
      {"measurement": "AUC0‒last", "setting": "[1]; plasma, day 1 of cycle 1, Selumetinib 125 mg + Pembrolizumab 200 mg, n = 14, geometric mean (% geometric CV)", "value": "4430 (57.6) h · ng/mL"}
    ]}
  ]
}
